Calls of active or inactive are those of the source. The rule behind the calls is not given here.
Experiments:
MDA-MB-231 [1] = assay: Antiproliferative activity against human MDA-MB-231 cells assessed as induction of ROS production at 20 nM in presence of NAC measured after 24 hrs by MTT assay; format: functional, cell-based
MDA-MB-231 [2] = assay: Induction of apoptosis in human MDA-MB-231 cells assessed as late apoptotic cells at 20 nM incubated for 24 hrs by Annexin V-FITC/PI staining based flow cytometric analysis (reference value: 4.90%); format: functional
MDA-MB-231 [3] = assay: Induction of cell cycle arrest in human MDA-MB-231 cells assessed as accumulation of cells at G2/M phase at 5 to 20 nM measured after 24 hrs by PI staining by flow cytometric analysis (Rvb =11.70%); format: functional; settings: dose 5-20 nM
MDA-MB-231 [4] = assay: Induction of apoptosis in human MDA-MB-231 cells assessed as necrotic cells at 20 nM incubated for 24 hrs by Annexin V-FITC/PI staining based flow cytometric analysis (reference value: 0.11%); format: functional
MDA-MB-231 [5] = assay: Induction of cell cycle arrest in human MDA-MB-231 cells assessed as accumulation of cells at G2 phase at 5 nM measured after 24 hrs by PI staining by flow cytometric analysis (Rvb =18.1%); format: functional
MDA-MB-231 [6] = assay: Induction of apoptosis in human MDA-MB-231 cells assessed as increase in cleaved caspase-3 level incubated for 8 hrs by Western blotting analysis; format: functional, cell-based; settings: dose 5-20 nM
MDA-MB-231 [7] = assay: Induction of mitochondrial membrane potential depolarization in human MDA-MB-231 cells assessed as increase in green fluorescence at 5 to 20 nM incubated for 24 hrs by JC-1 staining based inverted fluorescent microscopic analysis; format: functional, cell-based; settings: dose 5-20 nM
MDA-MB-231 [8] = assay: Induction of apoptosis in human MDA-MB-231 cells assessed as increase in Bax level incubated for 24 hrs by Western blotting analysis; format: functional, cell-based; settings: dose 5-20 nM
MDA-MB-231 [9] = assay: Induction of apoptosis in human MDA-MB-231 cells assessed as late apoptotic cells at 5 nM incubated for 24 hrs by Annexin V-FITC/PI staining based flow cytometric analysis (reference value: 4.90%); format: functional
[10] = Drug localization in mitochondria of human HCT-116 cells at 1 uM incubated for 1 hr measured after 40 mins by mito-tracker probe based confocal laser scanning microscopic analysis; format: ADME; settings: hct-116, 1.667 h, time 100 min
MDA-MB-231 [11] = assay: Induction of apoptosis in human MDA-MB-231 cells assessed as necrotic cells at 10 nM incubated for 24 hrs by Annexin V-FITC/PI staining based flow cytometric analysis (reference value: 0.11%); format: functional
[12] = Toxicity in BALB/C mouse xenografted with human MDA-MB-231 cells assessed as heart damage at 2.5 to 5 mg/kg, ip administered every 2 days measured after 3 weeks by H and E staining based analysis; format: organism-based; settings: in vivo, 504 h, dose 2.5-5 mg/kg
[13] = Drug localization in mitochondria of human MDA-MB-231 cells at 1 uM incubated for 1 hr measured after 40 mins by mito-tracker probe based confocal laser scanning microscopic analysis; format: ADME; settings: mda-mb-231, 1.667 h, time 100 min
MDA-MB-231 [14] = assay: Induction of cell cycle arrest in human MDA-MB-231 cells assessed as accumulation of cells at S phase at 5 nM measured after 24 hrs by PI staining by flow cytometric analysis (Rvb =24.1%); format: functional
MDA-MB-231 [15] = assay: Induction of ROS production in human MDA-MB-231 cells measured after 24 hrs by DCFH-DA staining based fluorescence microscopic analysis; format: functional, cell-based; settings: dose 5-20 nM
MDA-MB-231 [16] = assay: Induction of apoptosis in human MDA-MB-231 cells assessed as viable cells at 20 nM incubated for 24 hrs by Annexin V-FITC/PI staining based flow cytometric analysis (reference value: 90.1%); format: functional; settings: read-out: Activity
A549 = assay: Antiproliferative activity against human A549 cells assessed as inhibition of cell growth measured after 48 hrs by MTT assay; format: functional, cell-based; settings: A549, 48 h
MDA-MB-231 [17] = assay: Induction of apoptosis in human MDA-MB-231 cells assessed as increase in Bad level incubated for 8 hrs by Western blotting analysis; format: functional, cell-based; settings: dose 5-20 nM
MDA-MB-231 [18] = assay: Induction of cell cycle arrest in human MDA-MB-231 cells assessed as accumulation of cells at G1 phase at 5 nM measured after 24 hrs by PI staining based flow cytometric analysis (Rvb =58%); format: functional
MDA-MB-231 [19] = assay: Antiproliferative activity against human MDA-MB-231 cells assessed as effect on NO level at 20 nM measured after 24 hrs in presence of PTIO by MTT assay; format: functional, cell-based
MDA-MB-231 [20] = assay: Induction of cell cycle arrest in human MDA-MB-231 cells assessed as accumulation of cells at G2 phase at 10 nM measured after 24 hrs by PI staining by flow cytometric analysis (Rvb =18.1%); format: functional
[21] = Toxicity in BALB/C mouse xenografted with human MDA-MB-231 cells assessed as kidney damage at 2.5 to 5 mg/kg, ip administered every 2 days measured after 3 weeks by H and E staining based analysis; format: organism-based; settings: in vivo, 504 h, dose 2.5-5 mg/kg
MDA-MB-231 [22] = assay: Induction of apoptosis in human MDA-MB-231 cells assessed as decrease in mitochondrial SMAC level at 5 to 20 nM incubated for 8 hrs by Western blotting analysis; format: functional, cell-based; settings: dose 5-20 nM
MDA-MB-231 [23] = assay: Induction of apoptosis in human MDA-MB-231 cells assessed as early apoptotic cells at 20 nM incubated for 24 hrs by Annexin V-FITC/PI staining based flow cytometric analysis (reference value: 4.90%); format: functional
MDA-MB-231 [24] = assay: Induction of apoptosis in human MDA-MB-231 cells assessed as viable cells at 10 nM incubated for 24 hrs by Annexin V-FITC/PI staining based flow cytometric analysis (reference value: 90.1%); format: functional; settings: read-out: Activity
MDA-MB-231 [25] = assay: Induction of apoptosis in human MDA-MB-231 cells assessed as viable cells at 5 nM incubated for 24 hrs by Annexin V-FITC/PI staining based flow cytometric analysis (reference value: 90.1%); format: functional; settings: read-out: Activity
MDA-MB-231 [26] = assay: Induction of apoptosis in human MDA-MB-231 cells assessed as increase in cytoplasmic CytC level at 5 to 20 nM incubated for 8 hrs by Western blotting analysis; format: functional, cell-based; settings: dose 5-20 nM
MDA-MB-231 [27] = assay: Induction of apoptosis in human MDA-MB-231 cells assessed as total apoptotic cells at 5 to 20 nM incubated for 24 hrs by Annexin V-FITC/PI staining based flow cytometric analysis (Rvb =10.03%); format: functional; settings: dose 5-20 nM
MDA-MB-231 [28] = assay: Induction of apoptosis in human MDA-MB-231 cells assessed as necrotic cells at 5 nM incubated for 24 hrs by Annexin V-FITC/PI staining based flow cytometric analysis (reference value: 0.11%); format: functional
MDA-MB-231 [29] = assay: Antitumor activity against human MDA-MB-231 cells xenografted in BALB/C mouse assessed as increase in ROS level in tumor at 2.5 to 5 mg/kg, ip administered every 2 days measured after 3 weeks by DHE staining based analysis; format: functional, organism-based; settings: dose 2.5-5 mg/kg
HCT-116 = assay: Antiproliferative activity against human HCT-116 cells assessed as inhibition of cell growth measured after 48 hrs by MTT assay; format: functional, cell-based; settings: HCT-116, 48 h
[30] = Toxicity in BALB/C mouse xenografted with human MDA-MB-231 cells assessed as spleen damage at 2.5 to 5 mg/kg, ip administered every 2 days measured after 3 weeks by H and E staining based analysis; format: organism-based; settings: in vivo, 504 h, dose 2.5-5 mg/kg

Drug uptake [10]: Active
Drug uptake [13]: Active
IC50 (A549): 840 nM
IC50 (HCT-116): 4140 nM
SMILES: CCN(CC)c1ccc2cc(C(=O)OCCCCCOc3cc4ccc(=O)oc4cc3OCCCCCCOc3no[n+]([O-])c3S(=O)(=O)c3ccccc3)c(=O)oc2c1
Activity (MDA-MB-231 [1]): inactive
Activity (MDA-MB-231 [2]): 39%
Activity (MDA-MB-231 [3]): 22.97%
Activity (MDA-MB-231 [4]): 3.93%
Activity (MDA-MB-231 [5]): 12.8%
Activity (MDA-MB-231 [6]): Dose-Dependent Effect
Activity (MDA-MB-231 [7]): Active
Activity (MDA-MB-231 [8]): Dose-Dependent Effect
Activity (MDA-MB-231 [9]): 20.4%
Activity (MDA-MB-231 [11]): 0.83%
Activity [12]: Non-Toxic
Activity (MDA-MB-231 [14]): 29.3%
Activity (MDA-MB-231 [15]): Dose-Dependent Effect
viability at 0.02 µM (MDA-MB-231 [16]): 25.2%
Activity (MDA-MB-231 [17]): Dose-Dependent Effect
Activity (MDA-MB-231 [18]): 55.3%
Activity (MDA-MB-231 [19]): inactive
Activity (MDA-MB-231 [20]): 13.8%
Activity [21]: Non-Toxic
Activity (MDA-MB-231 [22]): Active
Activity (MDA-MB-231 [23]): 31.9%
viability at 0.01 µM (MDA-MB-231 [24]): 47.3%
viability at 0.005 µM (MDA-MB-231 [25]): 67.1%
Activity (MDA-MB-231 [26]): Active
Activity (MDA-MB-231 [27]): 71.69%
Activity (MDA-MB-231 [28]): 0.26%
Activity (MDA-MB-231 [29]): Active
Activity [30]: Non-Toxic

Reference: ChEMBL document CHEMBL5321282, “Design, Synthesis, and Biological Evaluation of Esculetin-Furoxan-DEAC Ternary Hybrids for Anti-Triple Negative Breast Cancer” (J Med Chem, 2023)
